# Experimental data reported in US4914110A, “Quinoline derivatives, their preparation and therapeutic compositions containing the same” (Societe de Conseils de Recherches et d'Applications …, priority 1988, dated 1990).
# Experiments:
# [1] = tested on: Staphylococcus aureus ATCC 6538; experiment: bactericidal activity by serial dilution in Brain Heart Infusion Broth (MIC and MMC), S.a.; format: cell-based; conditions: 24 hours; for MIC: ATCC6538, 37° C., read-out: Minimal Inhibitory Concentration (MIC); for MBC: ATCC6538, sub-culture on Tryptone Soy Agar, 37° C., read-out: Minimal Microbiocidal Concentration (MMC)
# Procedure: (§1) (A) The bactericidal activity of the compounds of the invention has been determined on various microorganisms, as hereinafter described.
# (§2) Serial dilutions of the test and reference compounds are prepared in Brain Heart Infusion Broth (Oxoid CM225) in two-fold steps from 1000 μg/ml down to 0.5 μg/ml.
# (§3) The test organisms are cultured on Tryptone Soy Agar (TSA, Oxoid CM131) and checked for viability and purity. Standardized inocula are then ppepared by inoculating slopes of TSA and incubating at 37° C. for 24 hours. The resultant bacterial growth is then removed by the addition of sterile physiological saline and shaking with glass beads. The suspensions of organisms are then standardized to give 50% transmission at […] on an SP600 Spectrophotometer. Calibration curves show this to yield approximately 10^8 colony forming units per ml.
# (§4) 0.1 ml aliquots of these suspensions are then used to inoculate each of the prepared serial dilutions of the compounds in Brain Heart Infusion Broth.
# (§5) The sets of dilutions are incubated at 37° C. for 24 hours and then inspected for the presence or absence of growth as shown by turbidity of the medium. The lowest concentration showing no growth of the test organism is recorded as the Minimal Inhibitory Concentration (MIC) of the compound for that organism.
# (§6) Each of the tubes showing no growth are then sub-cultured onto plates of Tryptone Soy Agar and incubated at 37° C. for 24 hours. The plates are then inspected for the presence or absence of growth at the inoculation points. […] MIC and MMC are expressed in μg/ml.
# (§7) The results are presented in the following table, in comparison with those for two reference compounds, nitrofuroxazide and pipemidic acid. The abreviations used in the table have the following meanings:
# S.a. Staphylococcus aureus
# [2] = tested on: Streptococcus pyogenes NCTC 8198; experiment: bactericidal activity by serial dilution in Brain Heart Infusion Broth (MIC and MMC), S.p.; format: cell-based; conditions: 24 hours; for MIC: NCTC8198, 37° C., read-out: Minimal Inhibitory Concentration (MIC); for MBC: NCTC8198, sub-culture on Tryptone Soy Agar, 37° C., read-out: Minimal Microbiocidal Concentration (MMC)
# Procedure: as §1, §2, §3, §4, §5, §6, §7
# S.p. Streptococcus pyogenes
# [3] = tested on: Pseudomonas aeruginosa ATCC 9027; experiment: bactericidal activity by serial dilution in Brain Heart Infusion Broth (MIC and MMC), P.a.; format: cell-based; conditions: 24 hours; for MIC: ATCC9027, 37° C., read-out: Minimal Inhibitory Concentration (MIC); for MBC: ATCC9027, sub-culture on Tryptone Soy Agar, 37° C., read-out: Minimal Microbiocidal Concentration (MMC)
# Procedure: as §1, §2, §3, §4, §5, §6, §7
# P.a. Pseudomonas aeruginosa
# [4] = tested on: Escherichia coli NCTC 8196; experiment: bactericidal activity by serial dilution in Brain Heart Infusion Broth (MIC and MMC), E.c.; format: cell-based; conditions: 24 hours; for MIC: NCTC8196, 37° C., read-out: Minimal Inhibitory Concentration (MIC); for MBC: NCTC8196, sub-culture on Tryptone Soy Agar, 37° C., read-out: Minimal Microbiocidal Concentration (MMC)
# Procedure: as §1, §2, §3, §4, §5, §6
# (§8) The results are presented in the following table, in comparison with those for two reference compounds, nitrofuroxazide and pipemidic acid. The abreviations used in the table have the following meanings: […]
# [5] = tested on: Proteus mirabilis NCTC 8559; experiment: bactericidal activity by serial dilution in Brain Heart Infusion Broth (MIC and MMC), P.m.; format: cell-based; conditions: 24 hours; for MIC: NCTC8559, 37° C., read-out: Minimal Inhibitory Concentration (MIC); for MBC: NCTC8559, sub-culture on Tryptone Soy Agar, 37° C., read-out: Minimal Microbiocidal Concentration (MMC)
# Procedure: as §1, §2, §3, §4, §5, §6, §8
# [6] = tested on: Salmonella enteritidis NCTC 6676; experiment: bactericidal activity by serial dilution in Brain Heart Infusion Broth (MIC and MMC), S.e.; format: cell-based; conditions: Salmonella enterica, 37° C., 24 hours; for MIC: read-out: Minimal Inhibitory Concentration (MIC); for MBC: sub-culture on Tryptone Soy Agar, read-out: Minimal Microbiocidal Concentration (MMC)
# Procedure: as §1, §2, §3, §4, §5, §6, §7
# S.e. Salmonella enteritidis
# [7] = tested on: Shigella boydii NCTC 9328; experiment: bactericidal activity by serial dilution in Brain Heart Infusion Broth (MIC and MMC), S.b.; format: cell-based; conditions: 24 hours; for MIC: NCTC9328, 37° C., read-out: Minimal Inhibitory Concentration (MIC); for MBC: NCTC9328, sub-culture on Tryptone Soy Agar, 37° C., read-out: Minimal Microbiocidal Concentration (MMC)
# Procedure: as §1, §2, §3, §4, §5, §6, §7
# S.b. Shigella boydii NCTC 9328
# solubility in water = format: physicochemical
# [8] = solubility in dimethylsulfoxide; format: physicochemical
# [9] = tested on: Vibrio Cholerae, Vibrio parahemolyticus, Vibrio alginolyticus, Aeromonas hydrophila Sobria and Salmonella; experiment: bacteriostatic activity, preceding experiment (comparison within the series); format: cell-based; conditions: compared with the compounds of examples 1 to 5
# Procedure: (B) The bacteriostatic activity of the compounds of the invention has also been searched against microorganisms more particularly related with gastro-enteritis.
# This experiment was conducted in Mueller-Hinton gelose with tested compounds dissolved in dimethylsulfoxide (control dimethylsulfoxide was provided) at increasing concentrations from 0.01 to 100 μg. The strains used were Vibrio Cholerae (3 strains respectively from Europe, Africa and Conth-East-Asia), Vibrio parahemolyticus, Vibrio alginolyticus, Aeromonas hydrophila Sobria and Salmonella. Minimum inhibitory concentration was found for the 7 compounds of the invention, between 0.5 and 1 μg for the Salmonella strain and between 0.1 and 0.5 μg for the other strains, which denotes a strong bacteriostatic activity.
SMILES,MIC [1],MBC [1],MIC [2],MBC [2],MIC [3],MBC [3],MIC [4],MBC [4],MIC [5],MBC [5],MIC [6],MBC [6],MIC [7],MBC [7],solubility in water (solubility in water),solubility in dimethylsulfoxide [8],relative activity in preceding experiment [9]
"CCn1cc(C(=O)O)c(=O)c2cc(F)cc(F)c21 [Example 1, 1,4-dihydro-3-carboxy-6,8-difluoro-1-ethyl-4-oxo-quinoline]",32 mg/L,32 mg/L,16 mg/L,32 mg/L,32 mg/L,64 mg/L,8 mg/L,8 mg/L,1 mg/L,2 mg/L,2 mg/L,4 mg/L,1 mg/L,1 mg/L,insoluble,soluble,
O=C(O)c1cn(CCF)c2c(F)cc(F)cc2c1=O [Example 2],4 mg/L,8 mg/L,32 mg/L,32 mg/L,8 mg/L,8 mg/L,32 mg/L,32 mg/L,4 mg/L,8 mg/L,4 mg/L,8 mg/L,8 mg/L,16 mg/L,insoluble,insoluble,
O=C(O)c1cn(COCCO)c2c(F)cc(F)cc2c1=O [Example 3],4 mg/L,8 mg/L,2 mg/L,4 mg/L,8 mg/L,16 mg/L,4 mg/L,8 mg/L,32 mg/L,32 mg/L,32 mg/L,32 mg/L,8 mg/L,8 mg/L,insoluble,soluble,
O=C(O)c1cn(CC2CC2)c2c(F)cc(F)cc2c1=O [Example 4],64 mg/L,64 mg/L,4 mg/L,4 mg/L,8 mg/L,16 mg/L,64 mg/L,64 mg/L,1 mg/L,2 mg/L,2 mg/L,4 mg/L,32 mg/L,32 mg/L,insoluble,soluble,
O=C(O)c1cn(Cc2ccc([N+](=O)[O-])o2)c2c(F)cc(F)cc2c1=O [Example 5],16 mg/L,64 mg/L,8 mg/L,32 mg/L,2 mg/L,2 mg/L,64 mg/L,64 mg/L,16 mg/L,32 mg/L,125 mg/L,125 mg/L,32 mg/L,32 mg/L,insoluble,soluble,
O=C(O)c1cn(CC2CCCCC2)c2c(F)cc(F)cc2c1=O [Example 6],8 mg/L,16 mg/L,16 mg/L,16 mg/L,4 mg/L,8 mg/L,64 mg/L,64 mg/L,8 mg/L,8 mg/L,4 mg/L,4 mg/L,8 mg/L,8 mg/L,insoluble,insoluble,less active
O=C(O)c1cn(Cc2c(Cl)cccc2Cl)c2c(F)cc(F)cc2c1=O [Example 7],8 mg/L,8 mg/L,32 mg/L,64 mg/L,8 mg/L,8 mg/L,1 mg/L,2 mg/L,2 mg/L,4 mg/L,2 mg/L,4 mg/L,16 mg/L,32 mg/L,insoluble,insoluble,less active
"O=C(N/N=C/c1ccc([N+](=O)[O-])o1)c1ccc(O)cc1 [Nif., Nifuroxazide, reference compound]",8 mg/L,8 mg/L,1 mg/L,1 mg/L,500 mg/L,500 mg/L,4 mg/L,4 mg/L,500 mg/L,500 mg/L,500 mg/L,500 mg/L,8 mg/L,8 mg/L,,,
"CCn1cc(C(=O)O)c(=O)c2cnc(N3CCNCC3)nc21 [Pip., Pipemidic acid, reference compound]",2 mg/L,250 mg/L,4 mg/L,125 mg/L,1 mg/L,16 mg/L,4 mg/L,4 mg/L,4 mg/L,8 mg/L,4 mg/L,8 mg/L,4 mg/L,4 mg/L,,,
